Experimental data as given in patent EP3381898A1, “SYMMETRICAL TRIS-ARYL-AMIDE DERIVATIVES AND THEIR USE AS ANTI-HEPARANASE” (priority 2017, dated 2018).
Counter-ions that a name gives are not always drawn.

Biological target: T1, heparanase (Homo sapiens, UniProt Q9Y251)
T1 sequence (Q9Y251 158-543 limits assumed): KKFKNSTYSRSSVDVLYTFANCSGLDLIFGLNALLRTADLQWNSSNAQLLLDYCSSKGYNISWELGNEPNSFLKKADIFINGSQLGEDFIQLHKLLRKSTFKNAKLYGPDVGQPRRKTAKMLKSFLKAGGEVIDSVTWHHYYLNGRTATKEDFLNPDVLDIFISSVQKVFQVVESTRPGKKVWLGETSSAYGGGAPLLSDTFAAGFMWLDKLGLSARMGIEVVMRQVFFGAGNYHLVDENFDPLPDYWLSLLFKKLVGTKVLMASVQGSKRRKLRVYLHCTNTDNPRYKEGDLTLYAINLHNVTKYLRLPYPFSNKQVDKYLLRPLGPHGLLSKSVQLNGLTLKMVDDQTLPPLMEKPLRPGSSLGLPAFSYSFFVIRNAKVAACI
T1 sequence (Q9Y251 36-109 limits assumed): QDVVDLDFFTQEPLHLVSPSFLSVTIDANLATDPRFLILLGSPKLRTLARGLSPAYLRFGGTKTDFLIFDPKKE
Experiment: AGA*IA assay: heparanase-catalyzed fondaparinux cleavage, colorimetric (WST-1)
Type: biochemical
Conditions: Table 1; range activity classes, AGA*IA test on Fondaparinux; read-out: AGAIA assay IC50
Experimental: All compounds were tested in a simple, accurate and robust microplate assay based on the cleavage of the synthetic heparin fragment, the pentasaccharide Fondaparinux (AGA*IA). This assay was originally developed by Hammond and coworkers (Hammond E, Li CP, Ferro V. Development of a colorimetric assay for heparanase activity suitable for kinetic analysis and inhibitor screening. Anal. Biochem. 396(1), 112-116 (2010)), where Fondaparinux corresponds to the methyl glycoside of the antithrombin III (ATIII)-activating pentasaccharide sequence of heparin. Fondaparinux is cleaved by heparanase to generate a reducing disaccharide, which can be quantitatively measured via a colorimetric or a fluorescence assay, the last by the fluorescent sensor polymer-H [Schiemann S, Lühn S, Alban S. Development of both colorimetric and fluorescence heparinase activity assays using fondaparinux as substrate. Anal. Biochem. 427(1), 82-89 (2012)].
The assay measures the appearance of the disaccharide product of heparanase-catalyzed fondaparinux cleavage colorimetrically using the tetrazolium salt WST-1. Assay was essentially performed as described with minor modifications. Briefly, NUNC ELISA 96-well plates were pre-treated with a solution of 4% BSA (bovin serum albumin) in phosphate-buffered saline containing 0.05% Tween 20 (PBST), for 2 h at 37°C, then washed three times with PBST, dried by tapping on paper towel and stored at -20°C. Before use, once again, the plates were washed with PBST.
Assay was carried out with 100 µl/well of assay solution containing 40 mM sodium acetate buffer (pH 5.0), 100 µM fondaparinux, 2.5 nM heparanase and serial dilutions of test compounds (tested in triplicate). Plates were sealed with adhesive tape and incubated, in the dark, for 3 h at 37°C, followed by development with 1.69 mM of the tetrazolium salt WST-1 solution in 0.1 M NaOH, for 1 h at 60°C. Then, the absorbance at 560 nm was measured through a microplate reader (Victor 3, Perkin Elmer).
Finally, the measurements were corrected by subtracting both the reagent background and the inner absorbance value of test compound.

| Structure (SMILES) | IC50 [µM] |
| --- | --- |
| CC(C)CC(NC(=O)Cc1cccc(NC(=O)c2cc(NC(=O)c3cccc(NC(=O)Nc4cccc(C(=O)Nc5cc(C(=O)Nc6cccc(CC(=O)NC(CC(C)C)C(=O)O)c6)n(C)c5)c4)c3)cn2C)c1)C(=O)O (centres unmarked) [Compound 12a, 2,2'-{carbonylbis[imino-3,1-phenylenecarbonylimino(1-methyl-1H-pyrrole-4,2-diyl)carbonylimino-3,1-phenylene(1-oxoethane-2,1-diyl)imino]}bis(4-methylpentanoic acid)] | 1 to 20 |
| Cn1cc(NC(=O)c2cccc(NC(=O)Nc3cccc(C(=O)Nc4cc(C(=O)Nc5cccc(CC(=O)N[C@@H](CCCCN)C(=O)O)c5)n(C)c4)c3)c2)cc1C(=O)Nc1cccc(CC(=O)N[C@@H](CCCCN)C(=O)O)c1 [Compound 12c, 5,5'-{carbonylbis[imino-3,1-phenylenecarbonylimino(1-methyl-1H-pyrrole-4,2-diyl)carbonylimino-3,1-phenylene(1-oxoethane-2,1-diyl)imino]}bis(1-aminium-6-hexanoic acid) trifluoroacetate salt] | 1 to 20 |
| CC(NC(=O)Cc1cccc(NC(=O)c2cc(NC(=O)c3cccc(NC(=O)Nc4cccc(C(=O)Nc5cc(C(=O)Nc6cccc(CC(=O)NC(C)C(=O)O)c6)n(C)c5)c4)c3)cn2C)c1)C(=O)O (centres unmarked) [Compound 12d, 2,2'-{carbonylbis[imino-3,1-phenylenecarbonylimino(1-methyl-1H-pyrrole-4,2-diyl)carbonylimino-3,1-phenylene(1-oxoethane-2,1-diyl)imino]}dipropanoic acid] | 1 to 20 |
| Cn1cc(NC(=O)c2cccc(NC(=O)Nc3cccc(C(=O)Nc4cc(C(=O)Nc5cccc(CC(=O)N[C@@H](CCC(=O)O)C(=O)O)c5)n(C)c4)c3)c2)cc1C(=O)Nc1cccc(CC(=O)N[C@@H](CCC(=O)O)C(=O)O)c1 [Compound 12f, 2,2'-{carbonylbis[imino-3,1-phenylenecarbonylimino(1-methyl-1H-pyrrole-4,2-diyl)carbonylimino-3,1-phenylene(1-oxoethane-2,1-diyl)imino]}dipentandioic acid] | 1 to 20 |
| Cn1cc(NC(=O)c2cccc(NC(=O)Nc3cccc(C(=O)Nc4cc(C(=O)Nc5cccc(CC(=O)O)c5)n(C)c4)c3)c2)cc1C(=O)Nc1cccc(CC(=O)O)c1 [Compound 12h, 2,2'-(((4,4'-((3,3'-(Carbonylbis(azanediyl))bis(benzoyl))bis(azanediyl))bis(1-methyl-1H-pyrrole-4,2-diyl-2-carbonyl))bis(azanediyl))bis(3,1-phenylene))diacetic acid] | 1 to 20 |
| Cn1cc(NC(=O)c2cccc(NC(=O)Nc3cccc(C(=O)Nc4cc(C(=O)Nc5ccc(CC(=O)O)cc5)n(C)c4)c3)c2)cc1C(=O)Nc1ccc(CC(=O)O)cc1 [Compound 12j, 2,2'-(((4,4'-((3,3'-(carbonylbis(azanediyl))bis(benzoyl))bis(azanediyl))bis(1-methyl-1H-pyrrole-2,2'-carbonyl))bis(azanediyl))bis(4,1-phenylene))diacetic acid] | 1 to 20 |
| Cn1cc(NC(=O)c2cccc(NC(=O)Nc3cccc(C(=O)Nc4cc(C(=O)Nc5cccc(CC(=O)NCC(=O)NCC(=O)O)c5)n(C)c4)c3)c2)cc1C(=O)Nc1cccc(CC(=O)NCC(=O)NCC(=O)O)c1 [Compound 13b, Disodium 2,2'-{carbonylbis[imino-3,1-phenylenecarbonylimino(1-methyl-1H-pyrrole-4,2-diyl)carbonylimino-3,1-phenylene(1-oxoethane-2,1-diyl)imino(1-oxoethane-2,1-diyl)imino]}diethanoate salt] | 1 to 20 |
| CC(C)CC(NC(=O)Cc1cccc(NC(=O)c2cc(NC(=O)c3cc(NC(=O)Nc4cc(C(=O)Nc5cc(C(=O)Nc6cccc(CC(=O)NC(CC(C)C)C(=O)O)c6)n(C)c5)n(C)c4)cn3C)cn2C)c1)C(=O)O (centres unmarked) [Compound 17a, 2,2'-{carbonylbis[imino(1-methyl-1H-pyrrole-4,2-diyl)carbonylimino(1-methyl-1H-pyrrole-4,2-diyl)carbonylimino-3,1-phenylene(1-oxoethane-2,1-diyl)imino]}bis(4-methylpentanoic acid)] | 1 to 20 |
| C[C@H](NC(=O)Cc1cccc(NC(=O)c2cc(NC(=O)c3cc(NC(=O)Nc4cc(C(=O)Nc5cc(C(=O)Nc6cccc(CC(=O)N[C@@H](C)C(=O)O)c6)n(C)c5)n(C)c4)cn3C)cn2C)c1)C(=O)O [Compound 17d, 2,2'-{carbonylbis[imino(1-methyl-1H-pyrrole-4,2-diyl)carbonylimino(1-methyl-1H-pyrrole-4,2-diyl)carbonylimino-3,1-phenylene(1-oxoethane-2,1-diyl)imino]}dipropanoic acid] | 1 to 20 |
| Cn1cc(NC(=O)Nc2cc(C(=O)Nc3cc(C(=O)Nc4cccc(CC(=O)N[C@@H](CCC(=O)O)C(=O)O)c4)n(C)c3)n(C)c2)cc1C(=O)Nc1cc(C(=O)Nc2cccc(CC(=O)N[C@@H](CCC(=O)O)C(=O)O)c2)n(C)c1 [Compound 17f, 2,2'-{carbonylbis[imino-3,1-phenylenecarbonylimino(1-methyl-1H-pyrrole-4,2-diyl)carbonylimino-3,1-phenylene(1-oxoethane-2,1-diyl)imino]}dipentandioic acid] | 1 to 20 |
| Cn1cc(NC(=O)Nc2cc(C(=O)Nc3cc(C(=O)Nc4cccc(CC(=O)N[C@@H](CCCCN)C(=O)O)c4)n(C)c3)n(C)c2)cc1C(=O)Nc1cc(C(=O)Nc2cccc(CC(=O)N[C@@H](CCCCN)C(=O)O)c2)n(C)c1 [Compound 35c, (2S,2'S)-2,2'-((2,2'-(((4,4'-((4,4'-(carbonylbis(azanediyl))bis(1-methyl-1H-pyrrole-4,2-diyl-2-carbonyl))bis(azanediyl))bis(1-methyl-1H-pyrrole-4,2-diyl-2-carbonyl))bis(azanediyl))bis(3,1-phenylene))bis(acetyl))bis(azanediyl))bis(6-aminohexanoic acid) dihydrochloride] | 1 to 20 |
| CC(C)C[C@H](NC(=O)Cc1cccc(NC(=O)c2cc(NC(=O)c3ccc(Oc4ccc(C(=O)Nc5cc(C(=O)Nc6cccc(CC(=O)N[C@@H](CC(C)C)C(=O)O)c6)n(C)c5)cc4)cc3)cn2C)c1)C(=O)O [Compound 36a, (2S,2'S)-2,2'-((2,2'-(((4,4'-((4,4'-Oxybis(benzoyl))bis(azanediyl))bis(1-methyl-1H-pyrrole-2,2'-carbonyl))bis(azanediyl))bis(3,1-phenylene))bis(acetyl))bis(azanediyl))bis(4-methylpentanoic acid)] | 1 to 20 |
| Cn1cc(NC(=O)c2ccc(Oc3ccc(C(=O)Nc4cc(C(=O)Nc5cccc(CC(=O)NCC(=O)O)c5)n(C)c4)cc3)cc2)cc1C(=O)Nc1cccc(CC(=O)NCC(=O)O)c1 [Compound 36b, 2,2'-((2,2'-(((4,4'-((4,4'-Oxybis(benzoyl))bis(azanediyl))bis(1-methyl-1H-pyrrole-2,2'-carbonyl))bis(azanediyl))bis(3,1-phenylene))bis(acetyl))bis(azanediyl))diacetic acid] | 1 to 20 |
| Cn1cc(NC(=O)c2ccc(Oc3ccc(C(=O)Nc4cc(C(=O)Nc5cccc(CC(=O)N[C@@H](CCCCN)C(=O)O)c5)n(C)c4)cc3)cc2)cc1C(=O)Nc1cccc(CC(=O)N[C@@H](CCCCN)C(=O)O)c1 [Compound 36c, (2S,2'S)-2,2'-((2,2'-(((4,4'-((4,4'-oxybis(benzoyl))bis(azanediyl))bis(1-methyl-1H-pyrrole-4,2-diyl-2-carbonyl))bis(azanediyl))bis(3,1-phenylene))bis(acetyl))bis(azanediyl))bis(6-aminohexanoic acid) dihydrochloride] | 1 to 20 |
